Measurements taken from PMC2095803 (Nucleic Acids Research, 2007).

Columns and labels:
[1] = system: AmpliTaqFS; settings: F667Y mutation in AmpliTaqFS; cited from earlier work
[2] = biological target: T1, Vent(exo−) DNA polymerase (Thermococcus litoralis, UniProt P30317, D141A/E143A); assay: PEP termination assay; format: biochemical
T1 sequence (P30317 with tags, fused parts or gaps D141A/E143A): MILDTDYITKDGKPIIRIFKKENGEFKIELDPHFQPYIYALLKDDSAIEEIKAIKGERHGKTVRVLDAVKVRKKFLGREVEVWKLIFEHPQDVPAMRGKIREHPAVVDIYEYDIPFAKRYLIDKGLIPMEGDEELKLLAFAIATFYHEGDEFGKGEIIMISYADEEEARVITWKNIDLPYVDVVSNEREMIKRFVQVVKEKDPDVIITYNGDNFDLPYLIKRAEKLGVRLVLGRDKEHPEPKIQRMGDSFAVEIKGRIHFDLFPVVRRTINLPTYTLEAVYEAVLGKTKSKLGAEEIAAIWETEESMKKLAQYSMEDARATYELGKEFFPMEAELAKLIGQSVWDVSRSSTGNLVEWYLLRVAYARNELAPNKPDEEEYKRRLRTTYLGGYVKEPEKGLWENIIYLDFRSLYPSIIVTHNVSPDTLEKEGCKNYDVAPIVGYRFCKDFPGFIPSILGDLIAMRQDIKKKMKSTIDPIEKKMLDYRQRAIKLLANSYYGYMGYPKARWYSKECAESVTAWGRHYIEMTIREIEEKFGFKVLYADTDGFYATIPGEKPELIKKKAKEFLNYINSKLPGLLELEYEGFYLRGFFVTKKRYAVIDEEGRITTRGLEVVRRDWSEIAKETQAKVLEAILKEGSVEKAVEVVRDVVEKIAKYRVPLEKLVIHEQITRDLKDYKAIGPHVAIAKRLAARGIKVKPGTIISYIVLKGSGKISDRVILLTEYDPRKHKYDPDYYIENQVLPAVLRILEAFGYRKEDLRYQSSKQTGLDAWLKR

[3] = biological target: T2, Bst DNA polymerase (Geobacillus stearothermophilus, UniProt P52026); assay: Five-base CRT sequencing experiment on solid support; format: biochemical, Bacillus stearothermophilus
T2 sequence (P52026 289-876 limits assumed): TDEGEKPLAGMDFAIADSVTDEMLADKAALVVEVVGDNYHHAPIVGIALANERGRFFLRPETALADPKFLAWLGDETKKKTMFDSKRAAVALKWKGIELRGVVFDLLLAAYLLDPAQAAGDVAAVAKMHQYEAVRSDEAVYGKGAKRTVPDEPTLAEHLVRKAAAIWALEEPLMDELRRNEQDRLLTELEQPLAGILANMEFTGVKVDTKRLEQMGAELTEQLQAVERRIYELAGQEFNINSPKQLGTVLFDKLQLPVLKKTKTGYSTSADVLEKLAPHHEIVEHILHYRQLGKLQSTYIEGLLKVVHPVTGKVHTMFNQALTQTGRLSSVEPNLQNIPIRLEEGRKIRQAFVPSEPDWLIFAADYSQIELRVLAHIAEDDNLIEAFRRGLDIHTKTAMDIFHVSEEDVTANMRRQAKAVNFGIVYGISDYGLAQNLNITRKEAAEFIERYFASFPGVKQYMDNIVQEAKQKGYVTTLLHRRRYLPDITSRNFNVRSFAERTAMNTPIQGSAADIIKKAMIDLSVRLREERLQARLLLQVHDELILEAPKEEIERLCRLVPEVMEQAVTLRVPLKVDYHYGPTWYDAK

[4] = biological target: T3, Therminator II DNA polymerase (Thermococcus sp., UniProt Q56366, A485L/D141A/E143A/Y409V); assay: PEP termination assay; format: biochemical, Thermococcus species 9ºN-7
T3 sequence (Q56366 1-775 D141A/E143A/Y409V/A485L): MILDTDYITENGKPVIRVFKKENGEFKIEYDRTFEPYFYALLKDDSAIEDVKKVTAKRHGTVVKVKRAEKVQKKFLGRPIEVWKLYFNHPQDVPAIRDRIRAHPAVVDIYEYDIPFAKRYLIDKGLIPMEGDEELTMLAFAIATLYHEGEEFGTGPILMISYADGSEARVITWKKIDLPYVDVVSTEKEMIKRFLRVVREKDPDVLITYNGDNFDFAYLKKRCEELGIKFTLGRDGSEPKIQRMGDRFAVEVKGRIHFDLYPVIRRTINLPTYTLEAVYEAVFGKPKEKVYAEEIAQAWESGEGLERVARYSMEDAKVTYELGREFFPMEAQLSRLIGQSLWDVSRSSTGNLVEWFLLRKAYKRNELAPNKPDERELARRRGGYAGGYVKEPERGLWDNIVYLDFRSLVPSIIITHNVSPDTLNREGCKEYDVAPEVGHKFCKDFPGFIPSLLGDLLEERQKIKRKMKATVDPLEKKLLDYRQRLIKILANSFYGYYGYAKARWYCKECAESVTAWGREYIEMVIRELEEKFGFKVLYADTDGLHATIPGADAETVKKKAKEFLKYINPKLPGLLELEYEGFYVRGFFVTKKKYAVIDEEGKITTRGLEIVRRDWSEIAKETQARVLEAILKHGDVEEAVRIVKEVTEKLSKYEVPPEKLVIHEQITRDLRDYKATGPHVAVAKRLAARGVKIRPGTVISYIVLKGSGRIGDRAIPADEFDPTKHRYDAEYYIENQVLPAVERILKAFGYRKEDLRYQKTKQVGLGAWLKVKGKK

SMILES | Ratio ddATP over dATP [1] | IC50 [2] | Share of total signal derived from the correct +1 product [3] | Estimated signal S ([3]; S = (Ceff)^RL, five-base read) | Signal for the correct +1 product (T × C) ([3]; at cycle five) | Incorporation efficiency (I) ([3]; first cycle, on a solid support, 250 nM, Bst) | Deprotection efficiency (D) ([3]; first cycle, on a solid support, 365 nm light) | Cycle efficiency (Ceff) ([3]; first cycle, product of I and D, on a solid support) | IC50 [4]
Nc1ncnc2c1ncn2[C@H]1CC[C@@H](COP(=O)(O)OP(=O)(O)OP(=O)(O)O)O1 [ddATP, 2′,3′-dideoxyadenosine triphosphate, reference compound] | 0.59 | – | – | – | – | – | – | – | –
O=[N+]([O-])c1ccccc1CNc1ncnc2c1ncn2[C@H]1C[C@H](O)[C@@H](COP(=O)(O)OP(=O)(O)OP(=O)(O)O)O1 [Compound IIIc, N^6-(2-Nitrobenzyl)-2’-deoxyadenosine-5’-triphosphate] | – | 0.0021 µM | ≥ 80% | 68.4% | 40% | 98.6% | 94% | 92.7% | 0.03 µM
